These results are taken from US11739101B2, “Bifunctional degraders of hematopoietic progenitor kinase and therapeutic uses thereof” (Nurix Therapeutics, Inc., priority 2020, dated 2023).

For orientation: Dmax means the largest share of the target that was removed. A low value points to shallow degradation.

T1 sequence (Q92918 whole entry): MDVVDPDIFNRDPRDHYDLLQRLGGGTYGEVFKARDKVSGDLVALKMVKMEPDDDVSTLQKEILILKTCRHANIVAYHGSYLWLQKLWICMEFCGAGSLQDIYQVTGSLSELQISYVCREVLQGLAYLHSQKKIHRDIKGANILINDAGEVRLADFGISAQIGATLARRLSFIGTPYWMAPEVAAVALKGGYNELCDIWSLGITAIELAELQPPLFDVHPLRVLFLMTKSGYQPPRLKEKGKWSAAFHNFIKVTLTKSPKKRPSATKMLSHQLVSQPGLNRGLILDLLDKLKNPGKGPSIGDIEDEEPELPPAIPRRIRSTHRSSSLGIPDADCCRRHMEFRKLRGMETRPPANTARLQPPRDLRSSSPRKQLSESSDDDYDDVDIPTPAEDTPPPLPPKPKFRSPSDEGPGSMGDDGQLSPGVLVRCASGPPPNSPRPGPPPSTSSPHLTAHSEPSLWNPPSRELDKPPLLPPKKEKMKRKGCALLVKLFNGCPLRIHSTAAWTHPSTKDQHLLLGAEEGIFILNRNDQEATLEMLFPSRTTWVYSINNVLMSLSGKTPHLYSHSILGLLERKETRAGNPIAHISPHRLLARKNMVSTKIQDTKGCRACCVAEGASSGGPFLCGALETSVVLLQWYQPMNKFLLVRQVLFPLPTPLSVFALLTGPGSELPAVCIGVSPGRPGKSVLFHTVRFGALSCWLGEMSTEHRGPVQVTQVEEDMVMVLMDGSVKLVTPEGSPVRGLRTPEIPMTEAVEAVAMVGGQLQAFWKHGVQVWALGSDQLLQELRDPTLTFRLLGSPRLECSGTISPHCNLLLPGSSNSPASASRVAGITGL

This assay concerns the target T1, HPK1 (Homo sapiens, UniProt Q92918).
T1 construct: A HiBiT tag was introduced by CRISPR on the N terminus of HPK1 in Jurkat cells; host or cells: Jurkat (ATCC TIB-152), monoclonal CRISPR HiBiT knock-in line
The assay can be described thus: HPK1 Cellular HiBiT Degradation Assay. Type of assay: cell-based. Particulars: HiBiT-tagged HPK1 Jurkat cells, 24 hours, 10 uM to 0.1 nM; Dmax = 100 minus lowest % HPK1 remaining vs DMSO vehicle. The procedure, abridged:
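Jurkat cells with CRISPR N-terminal HiBiT-tagged HPK1 were exposed to an 11-point 3.16-fold dilution series, 10 uM to 0.1 nM final, for 24 hours at 37° C./5% CO2. HPK1 was read by HiBiT lytic luminescence against DMSO as 100% and parental cells as background. Dmax is 100 minus the lowest % remaining from a four-parameter fit, with a parallel CellTiter-Glo viability check.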
For orientation: HiBiT is a short tag that completes a luciferase, so light tracks the accessible tagged protein.
Take `Cc1cc(F)c(Nc2nc(-c3ccc4c(c3)N([C@H]3C[C@@H](N5CCCCC5)C3)C(=O)C43CCN(C(=O)CCOCCNc4cccc5c4C(=O)N(C4CCC(=O)NC4=O)C5=O)CC3)cc3ncn(C(C)C)c23)cc1C(=O)NC(C)C` (stereo partly drawn) [Example 11, 5-((6-(1′-(3-(2-((2-(2,6-dioxopiperidin-3-yl)-1,3-dioxoisoindolin-4-yl)amino)ethoxy)propanoyl)-2-oxo-1-((1s,3s)-3-(piperidin-1-yl)cyclobutyl)spiro[indoline-3,4′-piperidin]-6-yl)-3-isopropyl-3H-imidazo[4,5-c]pyridin-4-yl)amino)-4-fluoro-N-isopropyl-2-methylbenzamide]: the Dmax is less than 45%.

Consider `Cc1cc(F)c(Nc2nc(-c3ccc4c(c3)N([C@H]3C[C@@H](N5CCCCC5)C3)C(=O)C43CCN(C(=O)[C@@H]4CCN(C(=O)c5cnc(N6CCN(c7cccc8c7C(=O)N(C7CCC(=O)NC7=O)C8=O)CC6)cn5)C4)CC3)cc3ncn(C(C)C)c23)cc1C(=O)NC(C)C` (stereo partly drawn) [Example 86, 5-((6-(1′-((3R)-1-(5-(4-(2-(2,6-dioxopiperidin-3-yl)-1,3-dioxoisoindolin-4-yl)piperazin-1-yl)pyrazine-2-carbonyl)pyrrolidine-3-carbonyl)-2-oxo-1-((1s,3s)-3-(piperidin-1-yl)cyclobutyl)spiro[indoline-3,4′-piperidin]-6-yl)-3-isopropyl-3H-imidazo[4,5-c]pyridin-4-yl)amino)-4-fluoro-N-isopropyl-2-methylbenzamide], for which the Dmax was 45 to 65%.

In turn, `Cc1cc(F)c(Nc2nc(-c3ccc4c(c3)N([C@H]3C[C@@H](N5CCCCC5)C3)C(=O)C43CCN(C(=O)C4CN(C(=O)CC5CCN(c6cccc7c6C(=O)N(C6CCC(=O)NC6=O)C7=O)CC5)C4)CC3)cc3ncn(C(C)C)c23)cc1C(=O)NC(C)C` (stereo partly drawn) [Example 34, 5-{[6-(1′-{1-[2-(1-{2-[2,6-dioxopiperidin-3-yl]-1,3-dioxo-2,3-dihydro-1H-isoindol-4-yl}piperidin-4-yl)acetyl]azetidine-3-carbonyl}-2-oxo-1-[(1s,3s)-3-(piperidin-1-yl)cyclobutyl]-1,2-dihydrospiro[indole-3,4′-piperidin]-6-yl)-3-(propan-2-yl)-3H-imidazo[4,5-c]pyridin-4-yl]amino}-4-fluoro-2-methyl-N-(propan-2-yl)benzamide] came in with a Dmax of less than 45%.

`Cc1cc(F)c(Nc2nc(-c3ccc4c(c3)N([C@H]3C[C@@H](N5CCCCC5)C3)C(=O)C43CCN(C(=O)c4ccc(C(=O)N5CCC(c6ccc7c(c6)C(=O)N(C6CCC(=O)NC6=O)C7=O)CC5)cc4)CC3)cc3ncn(C(C)C)c23)cc1C(=O)NC(C)C` (stereo partly drawn) [Example 76, 5-[(6-{1′-[4-(4-{2-[2,6-dioxopiperidin-3-yl]-1,3-dioxo-2,3-dihydro-1H-isoindol-5-yl}piperidine-1-carbonyl)benzoyl]-2-oxo-1-[(1s,3s)-3-(piperidin-1-yl)cyclobutyl]-1,2-dihydrospiro[indole-3,4′-piperidin]-6-yl}-3-(propan-2-yl)-3H-imidazo[4,5-c]pyridin-4-yl)amino]-4-fluoro-2-methyl-N-(propan-2-yl)benzamide] registered a Dmax of 45 to 65%.

Compound `Cc1cc(F)c(Nc2nc(-c3ccc4c(c3)N([C@H]3C[C@@H](N5CCCCC5)C3)C(=O)C43CCN(C(=O)c4ccc(OC5CCN(c6ccc7c(c6)C(=O)N(C6CCC(=O)NC6=O)C7=O)CC5)cc4)CC3)cc3ncn(C(C)C)c23)cc1C(=O)NC(C)C` (stereo partly drawn) [Example 64, 5-{[6-(1′-{4-[(1-{2-[2,6-dioxopiperidin-3-yl]-1,3-dioxo-2,3-dihydro-1H-isoindol-5-yl}piperidin-4-yl)oxy]benzoyl}-2-oxo-1-[(1s,3s)-3-(piperidin-1-yl)cyclobutyl]-1,2-dihydrospiro[indole-3,4′-piperidin]-6-yl)-3-(propan-2-yl)-3H-imidazo[4,5-c]pyridin-4-yl]amino}-4-fluoro-2-methyl-N-(propan-2-yl)benzamide] came in with a Dmax greater than 65%.

Compound `Cc1cc(F)c(Nc2nc(-c3ccc4c(c3)N([C@H]3C[C@@H](N5CCCCC5)C3)C(=O)C43CCN(C(=O)c4ccc(C5CCN(CC(=O)NCCNc6cccc7c6C(=O)N(C6CCC(=O)NC6=O)C7=O)CC5)cc4)CC3)cc3ncn(C(C)C)c23)cc1C(=O)NC(C)C` (stereo partly drawn) [Example 88, 5-[(6-{1′-[4-(1-{[(2-{[2-(2,6-dioxopiperidin-3-yl)-1,3-dioxoisoindol-4-yl]amino}ethyl)carbamoyl]methyl}piperidin-4-yl)benzoyl]-2-oxo-1-[(1s,3s)-3-(piperidin-1-yl)cyclobutyl]spiro[indole-3,4′-piperidin]-6-yl}-3-isopropylimidazo[4,5-c]pyridin-4-yl)amino]-4-fluoro-N-isopropyl-2-methylbenzamide] came in with a Dmax greater than 65%.

In the case of `Cc1cc(F)c(Nc2nc(-c3ccc4c(c3)N(C3CC(N5CCCCC5)C3)C(=O)C43CCN(C(=O)C4CCN(C(=O)C5CCN(c6ccc7c(c6)C(=O)N(C6CCC(=O)NC6=O)C7=O)CC5)CC4)CC3)cc3ncn(C(C)C)c23)cc1C(=O)NC(C)C` (stereo not drawn) [Example 41, 5-[(6-{1′-[1-(1-{2-[2,6-dioxopiperidin-3-yl]-1,3-dioxo-2,3-dihydro-1H-isoindol-5-yl}piperidine-4-carbonyl)piperidine-4-carbonyl]-2-oxo-1-[(1s,3s)-3-(piperidin-1-yl)cyclobutyl]-1,2-dihydrospiro[indole-3,4′-piperidin]-6-yl}-3-(propan-2-yl)-3H-imidazo[4,5-c]pyridin-4-yl)amino]-4-fluoro-2-methyl-N-(propan-2-yl)benzamide], the “Cellular HPK1 HiBiT: Dmax (%)” value was “B (45%≤B≤65%)”.

In turn, `Cc1cc(F)c(Nc2nc(-c3ccc4c(c3)N([C@H]3C[C@@H](N5CCCCC5)C3)C(=O)C43CCN(C(=O)[C@@H]4CCN(C(=O)[C@H]5CC[C@H](Nc6ccc7c(c6)C(=O)N(C6CCC(=O)NC6=O)C7=O)CC5)C4)CC3)cc3ncn(C(C)C)c23)cc1C(=O)NC(C)C` (stereo partly drawn) [Example 81, 5-((6-(1′-((3R)-1-((1R,4R)-4-((2-(2,6-dioxopiperidin-3-yl)-1,3-dioxoisoindolin-5-yl)amino)cyclohexane-1-carbonyl)pyrrolidine-3-carbonyl)-2-oxo-1-((1s,3s)-3-(piperidin-1-yl)cyclobutyl)spiro[indoline-3,4′-piperidin]-6-yl)-3-isopropyl-3H-imidazo[4,5-c]pyridin-4-yl)amino)-4-fluoro-N-isopropyl-2-methylbenzamide] returned a Dmax of 45 to 65%.

Take `Cc1cc(F)c(Nc2nc(-c3ccc4c(c3)N([C@H]3C[C@@H](N5CCCCC5)C3)C(=O)C43CCN(C(=O)[C@H]4CCN(C(=O)[C@H]5CC[C@H](Nc6cccc7c6C(=O)N(C6CCC(=O)NC6=O)C7=O)CC5)C4)CC3)cc3ncn(C(C)C)c23)cc1C(=O)NC(C)C` (stereo partly drawn) [Example 87, 5-((6-(1′-((3S)-1-((1R,4S)-4-((2-(2,6-dioxopiperidin-3-yl)-1,3-dioxoisoindolin-4-yl)amino)cyclohexane-1-carbonyl)pyrrolidine-3-carbonyl)-2-oxo-1-((1s,3R)-3-(piperidin-1-yl)cyclobutyl)spiro[indoline-3,4′-piperidin]-6-yl)-3-isopropyl-3H-imidazo[4,5-c]pyridin-4-yl)amino)-4-fluoro-N-isopropyl-2-methylbenzamide]: the maximal degradation (Dmax) is less than 45%.

As for `Cc1cc(F)c(Nc2nc(-c3ccc4c(c3)N([C@H]3C[C@@H](N5CCCCC5)C3)C(=O)C43CCN(C(=O)c4ccc(N5CCN(c6cccc7c6C(=O)N(C6CCC(=O)NC6=O)C7=O)CC5)nc4)CC3)cc3ncn(C(C)C)c23)cc1C(=O)NC(C)C` (stereo partly drawn) [Example 83, 5-((6-(1′-(6-(4-(2-(2,6-dioxopiperidin-3-yl)-1,3-dioxoisoindolin-4-yl)piperazin-1-yl)nicotinoyl)-2-oxo-1-((1s,3)-3-(piperidin-1-yl)cyclobutyl)spiro[indoline-3,4′-piperidin]-6-yl)-3-isopropyl-3H-imidazo[4,5-c]pyridin-4-yl)amino)-4-fluoro-N-isopropyl-2-methylbenzamide], the Dmax is less than 45%.

The compound `Cc1cc(F)c(Nc2nc(-c3ccc4c(c3)N([C@H]3C[C@@H](N5CCCCC5)C3)C(=O)C43CCN(C(=O)[C@@H]4CCN(C(=O)C[C@H]5CC[C@H](Nc6cccc7c6C(=O)N(C6CCC(=O)NC6=O)C7=O)CC5)C4)CC3)cc3ncn(C(C)C)c23)cc1C(=O)NC(C)C` (stereo partly drawn) [Example 82, 5-((6-(1′-((3R)-1-(2-((1R,4R)-4-((2-(2,6-dioxopiperidin-3-yl)-1,3-dioxoisoindolin-4-yl)amino)cyclohexyl)acetyl)pyrrolidine-3-carbonyl)-2-oxo-1-((1s,3s)-3-(piperidin-1-yl)cyclobutyl)spiro[indoline-3,4′-piperidin]-6-yl)-3-isopropyl-3H-imidazo[4,5-c]pyridin-4-yl)amino)-4-fluoro-N-isopropyl-2-methylbenzamide] had a Dmax of 45 to 65%.

Turning to `Cc1cc(F)c(Nc2nc(-c3ccc4c(c3)N([C@H]3C[C@@H](N5CCCCC5)C3)C(=O)C43CCN(C(=O)C4CN(CC5CCN(c6cccc7c6C(=O)N(C6CCC(=O)NC6=O)C7=O)C5)C4)CC3)cc3ncn(C(C)C)c23)cc1C(=O)NC(C)C` (stereo partly drawn) [Example 35, 5-({6-[1′-(1-{[1-{2-[2,6-dioxopiperidin-3-yl]-1,3-dioxo-2,3-dihydro-1H-isoindol-4-yl}pyrrolidin-3-yl]methyl}azetidine-3-carbonyl)-2-oxo-1-[(1s,3s)-3-(piperidin-1-yl)cyclobutyl]-1,2-dihydrospiro[indole-3,4′-piperidin]-6-yl]-3-(propan-2-yl)-3H-imidazo[4,5-c]pyridin-4-yl}amino)-4-fluoro-2-methyl-N-(propan-2-yl)benzamide], the Dmax lay in the range of 45 to 65%.
